# Results from patent publication US20210346459A1, “Application of Dalargin for the prevention of VRIs and prevention of the development of complications during VRIs” (priority 2020, published 2021).
# Where two headings read alike, the source gives them in different places. Marks after values point to notes of the source that are not given here. Square brackets hold non-standard residues; d marks the D form. Peptide text beside a SMILES is read from it.
# Experiments:
# [1] = Effect of low pH acetate buffer on antiviral and immunotropic activity; conditions: low pH acetate-based buffer solution; nose, nasopharynx, oropharynx, oral cavity or sublingual
# Excerpt: The preferred type of buffer salts is acetate buffer, which contains sodium acetate and acetic acid, with a preferred pH value of 4.0-5.5. Citrate buffer can also be used. […] Additionally, a physiologically active buffer on the basis of sodium hydrogen phosphate dihydrate and sodium dihydrogen phosphate dihydrate can be used; however, this buffer is not sufficiently efficient in the pH range from 4.0 to 5.5 in terms of its buffer capacity.
# influenza virus A = format: in vivo, human
# [2] = tested on: influenza virus A/California/04/2009; format: in vivo, mice
# [3] = tested on: influenza virus A/Puerto Rico/8/34 (H1N1); format: in vivo, Balb/c mice
# influenza = format: in vivo, human; conditions: Example 9, 4 relatives; 0.02% solution inhaled once a day, 1 mg/day; 7 days
# [4] = tested on: influenza virus A/Puerto Rico/8/34 (H1N1); conditions: for Virus titer PR8 (influenza virus): virus control 5.5
# [5] = application to skin or mucosae at any concentration; cited from earlier work
# [6] = in vivo; cited from earlier work
# human adenovirus 5 = conditions: for Virus titer Ad5 (adenovirus): virus control 4.5
# in vitro = conditions: African green monkey
# [7] = Example 10, patient V, A/California/07/2009 (H1N1), 0.1% solution inhaled twice a day, 4 mg/day, with Oseltamivir
# [8] = Group 4: nasally once a day 0.2 mg/kg, concentration 0.08%
# [9] = Group 4: nasally once a day 0.2 mg/kg, concentration 0.08%, 30 animals
# [10] = Group 5: nasally and posterior pharyngeal wall (PS) once daily 0.5 mg/kg, concentration 0.1%
# [11] = Group 5: nasally and posterior pharyngeal wall (PS) once daily 0.5 mg/kg, concentration 0.1%, 30 animals
# [12] = Group 6: inhalation of 1% solution 40 min once a day, 0.5 mg/kg
# [13] = Group 6: inhalation of 1% solution 40 min once a day, 0.5 mg/kg, 30 animals
# [14] = Group 7: inhalation of 3% solution 45 min once a day, 1.74 mg/kg
# [15] = Group 7: inhalation of 3% solution 45 min once a day, 1.74 mg/kg, 30 animals
# [16] = Group 9: inhalation of 3% solution 45 min twice a day, prophylactic only
# [17] = Group 9: inhalation of 3% solution 45 min twice a day, prophylactic only, 30 animals
# [18] = Group 10: nasally + pharyngeal spray (PS) 0.5 mg/kg once a day, prophylactic only
# [19] = Group 10: nasally + pharyngeal spray (PS) 0.5 mg/kg once a day, prophylactic only, 30 animals
# [20] = Group 4: inhalation of 1% solution 14 min twice a day, 0.36 mg/kg
# [21] = Group 4: inhalation of 1% solution 14 min twice a day, 0.36 mg/kg, 30 animals
# [22] = Group 5: inhalation of 3% solution 45 min twice a day, 1.74 mg/kg
# [23] = Group 5: inhalation of 3% solution 45 min twice a day, 1.74 mg/kg, 30 animals
# [24] = Group 6: inhalation of 5% solution 55 min twice a day, 3.54 mg/kg
# [25] = Group 6: inhalation of 5% solution 55 min twice a day, 3.54 mg/kg, 30 animals
# [26] = Group 8: inhalation of 3% solution 45 min twice a day, prophylactic only
# [27] = Group 8: inhalation of 3% solution 45 min twice a day, prophylactic only (days 3, 2, 1 and 1 hour before challenge), 30 animals
# [28] = Group 9: nasally + pharyngeal spray 0.5 mg/kg, prophylactic only
# [29] = Group 9: nasally + pharyngeal spray 0.5 mg/kg, prophylactic only, 30 animals
smiles,measurement,setting,value
"CC(C)C[C@H](NC(=O)[C@H](Cc1ccccc1)NC(=O)CNC(=O)[C@@H](C)NC(=O)[C@@H](N)Cc1ccc(O)cc1)C(=O)N[C@@H](CCCNC(=N)N)C(=O)O [Dalargin, tyrosyl-D-alanyl-glycyl-phenylalanyl-leucyl-arginine diacetate] (H-Y[dA]GFLR-OH)",Fold higher specific antiviral and immunotropic activity,[1],2-4 times
same,"Complete resolution of symptoms, day after start of therapy","influenza virus A; Example 8, patient K, influenza pneumonia A/Aichi/2/68 (H3N2), 0.02% solution inhaled twice a day, 1 mg/day, with Oseltamivir 75 mg twice a day",7 days
same,Duration of fever,influenza virus A; [7],3 days
same,Duration of intoxication symptoms,influenza virus A; [7],2 days
same,Duration of the disease as a whole (complete resolution of symptoms),influenza virus A; [7],5 days
same,"Mortality, %",[2]; [8],56.67%
same,"Protective index, %",[2]; [8],41.38%
same,Mortality by day 5,[2]; [9],2
same,Mortality by day 6,[2]; [9],4
same,Mortality by day 7,[2]; [9],9
same,Mortality by day 9,[2]; [9],1
same,Mortality by day 11,[2]; [9],1
same,Residue,[2]; [9],13
same,"Mortality, %",[2]; [10],40.00%
same,"Protective index, %",[2]; [10],58.62%
same,Mortality by day 6,[2]; [11],1
same,Mortality by day 7,[2]; [11],2
same,Mortality by day 8,[2]; [11],3
same,Mortality by day 9,[2]; [11],5
same,Mortality by day 10,[2]; [11],1
same,Residue,[2]; [11],18
same,"Mortality, %",[2]; [12],6.67%**
same,"Protective index, %",[2]; [12],93.10%
same,Mortality by day 7,[2]; [13],1
same,Mortality by day 8,[2]; [13],1
same,Residue,[2]; [13],28
same,"Mortality, %",[2]; [14],10.00%**
same,"Protective index, %",[2]; [14],89.66%
same,Mortality by day 7,[2]; [15],1
same,Mortality by day 8,[2]; [15],1
same,Mortality by day 9,[2]; [15],1
same,Residue,[2]; [15],27
same,"Mortality, %",[2]; [16],30.00%
same,"Protective index, %",[2]; [16],68.97%
same,Mortality by day 6,[2]; [17],2
same,Mortality by day 7,[2]; [17],3
same,Mortality by day 8,[2]; [17],2
same,Mortality by day 9,[2]; [17],2
same,Residue,[2]; [17],21
same,"Mortality, %",[2]; [18],46.67%
same,"Protective index, %",[2]; [18],51.72%
same,Mortality by day 5,[2]; [19],2
same,Mortality by day 6,[2]; [19],4
same,Mortality by day 7,[2]; [19],2
same,Mortality by day 8,[2]; [19],3
same,Mortality by day 9,[2]; [19],2
same,Mortality by day 10,[2]; [19],1
same,Residue,[2]; [19],16
same,"Efficacy compared with other antiviral drugs (Ingavirin, Arbidol)","[2]; administered by inhalation, prevention of influenza pneumonia",superior to other antiviral drugs
same,"Protective effect against infection, share of animals","[2]; preventive administration, depending on the route of administration",50-70%
same,Protective effect on lung tissue and lung function compared with comparators,[3]; Dalargin inhalation,superior to that of Tamiflu and Kagocel
same,"Mortality, %",[3]; [20],10.00%
same,"Protective index, %",[3]; [20],88.46%
same,Mortality by day 9,[3]; [21],2
same,Mortality by day 11,[3]; [21],1
same,Residue,[3]; [21],27*
same,"Mortality, %",[3]; [22],6.67%
same,"Protective index, %",[3]; [22],92.30%
same,Mortality by day 8,[3]; [23],1
same,Mortality by day 10,[3]; [23],1
same,Residue,[3]; [23],28*
same,"Mortality, %",[3]; [24],6.67%
same,"Protective index, %",[3]; [24],92.30%
same,Mortality by day 7,[3]; [25],1
same,Mortality by day 10,[3]; [25],1
same,Residue,[3]; [25],28*
same,"Mortality, %",[3]; [26],40.00%
same,"Protective index, %",[3]; [26],53.85%
same,Mortality by day 5,[3]; [27],1
same,Mortality by day 6,[3]; [27],3
same,Mortality by day 7,[3]; [27],2
same,Mortality by day 8,[3]; [27],3
same,Mortality by day 9,[3]; [27],3
same,Residue,"[3]; Group 8: inhalation of 3% solution 45 min twice a day, prophylactic only, 30 animals",18
same,"Mortality, %",[3]; [28],50.00%
same,"Protective index, %",[3]; [28],42.31%
same,Mortality by day 6,[3]; [29],4
same,Mortality by day 7,[3]; [29],4
same,Mortality by day 8,[3]; [29],4
same,Mortality by day 9,[3]; [29],2
same,Mortality by day 10,[3]; [29],1
same,Residue,[3]; [29],15
same,"Histological features of lung tissue, day 3 after challenge","[3]; oedema, neutrophilic infiltration, collapsed alveolae relative to control",far less pronounced
same,Efficacy attributed exclusively to the prophylactic protective effect,"[3]; preventive administration, without the therapeutic component",50%
same,"Histological features of lung tissue, day 12",[3]; surviving animals,One half of the animals receiving Dalargin exhibited no signs of pathology
same,Signs or symptoms of influenza in household contacts,influenza,"None of the relatives of patient V who were in contact with them exhibited catarrhal signs, hyperthermia or other signs or symptoms of influenza"
same,Virus titer PR8 (influenza virus),[4]; 0.4 μg/mL,5.5 lg TCID50/0.1 mL
same,Virus titer PR8 (influenza virus),[4]; 1.1 μg/mL,5.0 lg TCID50/0.1 mL
same,Virus titer PR8 (influenza virus),[4]; 3.3 μg/mL,5.0 lg TCID50/0.1 mL
same,Virus titer PR8 (influenza virus),[4]; 10 μg/mL,4.5 lg TCID50/0.1 mL
same,Virus titer PR8 (influenza virus),[4]; 30 μg/mL,4.0 lg TCID50/0.1 mL
same,SI,"[4]; CC50/IC50, PR8 (influenza virus)",>37.5
same,IC50,"[4]; PR8 (influenza virus), MDCK",0.8 mg/L
same,Antiviral properties (in words),"[4]; influenza virus, MDCK",dose-dependent reduction of the infectious activity
same,Local irritation,[5],does not produce local irritation
same,LD50,[6],2500 mg/kg
same,IC50,human adenovirus 5,2.5 mg/L
same,Virus titer Ad5 (adenovirus),human adenovirus 5; 0.4 μg/mL,4.5 lg TCID50/0.1 mL
same,Virus titer Ad5 (adenovirus),human adenovirus 5; 1.1 μg/mL,4.5 lg TCID50/0.1 mL
same,Virus titer Ad5 (adenovirus),human adenovirus 5; 3.3 μg/mL,4.0 lg TCID50/0.1 mL
same,Virus titer Ad5 (adenovirus),human adenovirus 5; 10 μg/mL,4.0 lg TCID50/0.1 mL
same,Virus titer Ad5 (adenovirus),human adenovirus 5; 30 μg/mL,3.5 lg TCID50/0.1 mL
same,SI,"human adenovirus 5; CC50/IC50, Ad5 (adenovirus)",12
same,Antiviral properties (in words),"human adenovirus 5; adenovirus, Vero",dose-dependent reduction of the infectious activity
same,CC50,in vitro,≥ 30 mg/L
